# Experiments:
# [1] = test system: clinical isolate CR-K. pneumoniae 7225; experiment: Non-lethal mouse peritonitis infection model; format: in vivo, Swiss albino mice
# Experimental: (§1) For both lethal and non-lethal infection models involving Carbapenem resistant Klebsiella pneumoniae suitable strains, number of mice per treatment and bacterial infection dose were predetermined in preliminary experiments.
# Each mouse (n=6 per group) received an intraperitoneal (i.p.) injection of 200 μl of bacterial suspension (1×10^4 CFU ml^−1).
# Mice were then treated once daily for two subsequent days (i.e. 24 h and 48 h). Twenty-four-hours after the last dose, the mice were euthanized via cervical dislocation and their spleen and liver excised, homogenized in PBS and plated onto Hichrome™ Klebsiella selective media (HiMedia Laboratories, PA, USA). The plates were incubated at 35° C. for 24 h and bacterial counts were determined (CFU g^−1 organ).
# Based on the significance of the SP-azaBIMs to restore the in vitro efficacy of antibiotics against high priority pathogenic bacteria, we examined if these compounds could provide proof of concept that they could be used to treat in vivo infections. To test this, we performed both non-lethal and lethal intraperitoneal infection models in Swiss Albino mice.
# There was a significant reduction in the K. pneumoniae load in both the liver (FIG. 2a) and spleen (FIG. 2b) for the combination therapies compared to the respective antibiotic monotherapies. […] Colistin (Col) (10 mg kg^−1) was used as the positive control in this case. K. pneumoniae load in the liver (FIG. 2a) and spleen (FIG. 2b) was determined by selective plating on Hichrome™ Klebsiella selective media. Data bars represent the average (n=6 mice per treatment group)±standard error.
# [2] = test system: K. pneumoniae 7225; experiment: Lethal peritonitis infection model (survival); format: in vivo, Swiss albino mice; details: for Survival in lethal K. pneumoniae infection: each 10 mg kg^−1 s.c.
# Experimental: as §1
# For the lethal peritonitis infections, mice were treated as in the non-lethal infection studies except the inoculation dose was 2×10^7 CFU mL^−1 K. pneumoniae 7225. The mice were then divided into the previously listed treatment regimens and treatment was provided every 24 h for two days after infection. Mice were monitored for mortality for 7 days and the moribund mice were euthanized humanely using cervical dislocation.
# For survival experiments, Swiss albino mice were given lethal doses of K. pneumoniae 7225 (C) (2×10^7 CFU ml^−1) via i.p. injection. Mice were treated the same as in the non-lethal peritonitis experiments and mortality was monitored for 7 days. Data lines represent the percent of mice (n=10 mice per treatment group) that survived daily. […]
# [3] = test system: Klebsiella pneumoniae ATCC BAA-2814; experiment: Gene expression analysis by quantitative reverse transcription PCR; format: cell-based
# Experimental: Cell treatment and RNA extraction: Overnight cultures of Klebsiella pneumoniae ATCC BAA-2814 grown on Brain Heart Infusion (BHI) agar was harvested and washed in phosphate buffer saline (pH=7.4) twice. Fresh Brain Heart infusion broth was inoculated with K. pneumoniae cells to a final concentration of 10^6 CFU mL^−1. Cells were subjected to the following treatments: T0—Vehicle only (ddH2O); T1—Meropenem only (0.25 MIC; 8 μg mL^−1); T2—Meropenem 0.25 MIC+SP-azaBIM 136 (2 ug mL^−1). Treated cells were incubated at 35° C. at 200 rpm and total RNA was extracted at 1 h and 6 h post exposure using TRIzol reagent (Life Technologies) following the manufacturer's protocol before eluting in DEPC treated water. Three biological replicates were included for each treatment.
# Quantitative reverse transcription PCR analysis: Reverse transcription was done using the GoScript Reverse Transcriptase Kit (Promega, USA) employing a mixture (1:1) of random and oligo dT primers with 2 μg RNA as starting material in a 20-μL reaction following the manufacturers protocols. cDNA samples were then quantified by real-time PCR using specific primers in an Applied Biosystems 7500 Fast Real-Time PCR system (Life Technologies Corp., USA) and the data analysed using the 2^(−ΔΔct) method. Thermal cycling was performed using a two-step PCR amplification standard procedure at 95° C. for 30 s and 35 cycles of 95° C. for 5 s and 60° C. for 30 s. The expression levels of all the genes were normalized using the K. pneumoniae RNA polymerase sigma factor (rpoD) gene as an internal standard.
# To examine this hypothesis, we investigated the expression of genes in K. pneumoniae ATCC […] that were affected by SP-azaBIM 136 treatment. Expression of key transcription factors and their associated downstream resistance and pathogenicity genes was examined in Klebsiella pneumoniae cells treated with meropenem and a combination of meropenem and SP-azaBIM 136. Cells in the exponential phase were either treated with 0.25 MIC (8 μg mL^−1) of Meropenem only or a combination of 0.25 MIC meropenem and 10 μg mL^−1 of SP-azaBIM 136. Untreated cells served as the control for baseline gene expression. Cells were exposed to each agent for 1 h and 6 h, after which the total RNA was extracted, and cDNA synthesis performed. […] The addition of SP-azaBIM 136 was theorized to revert the expression of the relevant genes closer to baseline expression levels.
# [4] = co-administered with Meropenem 10 mg kg^−1, SP-azaBIM 136 10 mg kg^−1 s.c. at 1, 24, 48 h, versus Meropenem only
# [5] = combination with Ciprofloxacin 10 mg kg^−1, SP-azaBIM 136 10 mg kg^−1 s.c., compared to Ciprofloxacin only
# [6] = Meropenem 0.25 MIC + SP-azaBIM 136, 6 h
# [7] = addition of SP-azaBIM 136 to meropenem, versus meropenem only
structure (smiles),measurement,setting,value
"Oc1ccc(C(c2c[nH]c3cnccc23)c2c[nH]c3cnccc23)cc1 [SP-6azaBIM 136, 4-(bis(1H-pyrrolo[2,3-c]pyridin-3-yl)methyl)phenol]",K. pneumoniae load in the organs,"[1]; SP-azaBIM 136 on its own, 10 mg kg^−1",not able to reduce K. pneumoniae load in the organs
same,Reduction of bacterial cells in the liver,[1]; [4],41 fold
same,Reduction of bacterial cells in the spleen,[1]; [4],14 fold
same,Reduction of bacterial cells in the liver,[1]; [5],~53 fold
same,Reduction of bacterial cells in the spleen,[1]; [5],~12 fold
same,Protection to lethal infections,[2]; SP-azaBIM 136 on its own,nor provide any protection to lethal infections
same,Survival in lethal K. pneumoniae infection,"[2]; co-treatment with Ciprofloxacin, 7 days",100%
same,Survival in lethal K. pneumoniae infection,"[2]; co-treatment with Meropenem, 7 days",90%
same,Mortality in lethal K. pneumoniae infection,"[2]; monotherapy 10 mg kg^−1 s.c., 2×10^7 CFU ml^−1 i.p., 7 days",100%
same,ROB gene expression relative to baseline levels,"[3]; Meropenem 0.25 MIC + SP-azaBIM 136 (2 ug mL^−1, 10 μg mL^−1 elsewhere in the source), 1 h",0.35 times that of baseline levels
same,soxS gene expression compared to untreated cells,"[3]; Meropenem 0.25 MIC + SP-azaBIM 136, 1 h",0.28 fold
same,ROB gene expression relative to baseline levels,[3]; [6],1.4 fold
same,soxS gene expression compared to untreated cells,[3]; [6],0.76 fold
same,Expression of extended spectrum beta-lactamases and carbapenemase gene KPC,[3]; Meropenem + SP-azaBIM 136,significantly suppressed
same,TEM-1 gene expression,[3]; Meropenem + SP-azaBIM 136,no significant variation in expression
same,marA regulatory gene expression response,[3]; Meropenem + SP-azaBIM 136,not as profound as the other two genes
same,"Virulence gene expression (fimH, entB, iutA, rpmA)","[3]; SP-azaBIM 136 added to meropenem, 1 h and 6 h",expression decreased significantly
same,Reduction in mexA gene expression,[3]; [7],17 fold
same,Reduction in norB gene expression,[3]; [7],4.5 fold

# Reference: US20230382926A1, “COMPOUNDS AND USES THEREOF” (The University of The West Indies, priority 2022, published 2023)
